Laboratory results from patent US20230210825A1, “METHODS AND COMPOSITIONS FOR TREATING SUBJECTS WITH METABOLIC DISORDERS AND CORONAVIRUS INFECTIONS” (CIRIUS THERAPEUTICS, INC., priority 2020, published 2023).

Legend:
[1] = system: subjects with biopsy proven non-alcoholic steatohepatitis (NASH) with fibrosis and no cirrhosis; experiment: EMMINENCE Phase 2b clinical trial; assay type: in vivo, human; settings: for Peripheral Edema Present at Baseline / Isoleucine Baseline / Leucine Baseline / TotalBCAA Baseline / Valine Baseline / Mean HbA1c at Baseline: before treatment; for Isoleucine Visit 7 / Leucine Visit 7 / TotalBCAA Visit 7 / Valine Visit 7: 12-month endpoint; for HbA1c Placebo-corrected change from Baseline at 6 months: ▾ (decrease)
Method: An interim analysis of the EMMINENCE Phase 2b trial was conducted in the first 328 subjects who reached their six-month follow-up visit. This study is a randomized, double-blinded study of three doses (62.5 mg 125 mg, or 250 mg) of MSDC-0602K or placebo given orally once daily to subjects with biopsy proven non-alcoholic steatohepatitis (NASH; a non-limiting example of a metabolic disorder) with fibrosis and no cirrhosis.
The subjects included in this interim analysis had significant liver disease, as established by liver biopsy, with an average NAS at baseline of 5.3. […] Overall, baseline characteristics were well-balanced across treatment groups.

[2] = system: influenza virus A/PR/8/34 (H1N1) infected mice; experiment: Influenza virus infection of C57BL/6 mice; assay type: in vivo; settings: 30 mg/kg for 8 days
Method: As shown in the top panel of FIG. 13A, C57BL/6 mice were infected with the influenza virus A/PR/8/34 (H1N1; ˜200 pfu/mouse) and then dosed for 8 days with vehicle or 30 mg/kg MSDC-0602K. As shown in the bottom panel of FIG. 13A, body weight was measured daily as indication of the health of the mice and at day 14 the mice were sacrificed for examination of their blood and lung tissue. The mice were sacrificed on day 14. […] The MCP-1 production levels are decreased in mice treated with MSDC-0602K compared with mice with vehicle treatment. Similarly, the inflammatory monocyte numbers in the lungs are reduced in mice treated with MSDC-0602K compared with mice with vehicle treatment. FIG. 13 C is a representative histology with a calculation of the percent disrupted area. […] The levels of protein-B (sftbp) and ABCA3 protein (abca3) were increased in mice treated with MSDC-0602K compared with mice with vehicle treatment. On the other hand, the total protein levels in bronchoalveolar lavage were decreased in mice treated with MSDC-0602K compared with mice with vehicle treatment.

[3] = system: mice on high trans-fat, fructose, cholesterol (HTF-C) diet; experiment: Serum miRNA sequencing in HTF-C diet mice; assay type: in vivo; settings: HTF-C diet containing 331 ppm MSDC-0602K after 4 or 16 weeks of plain HTF-C diet
Method: To begin evaluating the exosome cargo of MSDC-0602K-treated mice, WT mice were fed with either a low fat (LF) control diet (Research Diets D09100304) or high trans-fat, fructose, cholesterol (HTF-C) diet composed of 40% trans-fat, 20% fructose, 2% cholesterol (Research Diets D09100301). A subset of mice was fed plain HTF-C diet for 4 or 16 weeks, then switched to HTF-C diet that contained 331 ppm MSDC-0602K.
Total RNA was isolated from 400 μL of serum and small RNA sequencing was performed by adapter ligation, cDNA synthesis and size selection of 145-160 base pairs. Sequencing was then performed on an Illumina HiSeq3000.

[4] = system: diet-induced obese (60% HF diet) WT (fl/fl) and LS-MPC2−/− mice; experiment: Single dose in diet-induced obese WT and LS-MPC2−/− mice (GTT, plasma insulin, ALT, liver qPCR); settings: for glucose tolerance (GTT): 20 h after a single gavage of 30 mg/kg, vs vehicle
[5] = system: cell functions and key regulatory proteins; experiment: Impact of MSDC-0602K vs overnutrition on cell functions and key regulatory proteins (Table 1)
carbonyl reductase = experiment: Metabolism to the hydroxy metabolite
[6] = system: subjects with biopsy proven non-alcoholic steatohepatitis (NASH) with fibrosis and no cirrhosis; experiment: EMMINENCE Phase 2b clinical trial; assay type: in vivo, human
[7] = 62.5 mg, N = 99, mean, baseline to 12-month endpoint
[8] = 125 mg, mean, baseline to 12-month endpoint
[9] = 250 mg, N = 101, mean, baseline to 12-month endpoint
[10] = 1-year Phase 2b dose-ranging trial, fatty liver disease with or without type 2 diabetes
[11] = all MSDC-0602K dose cohorts, interim analysis
[12] = all subjects, six months, 125 mg and 250 mg doses
[13] = sacrificed day 14, vs vehicle (FIG. 13B)

## COc1cccc(C(=O)COc2ccc(CC3SC(=O)NC3=O)cc2)c1 (centres unmarked) [MSDC-0602K]
[1]; 62.5 mg (n = 81)
  Peripheral Edema Present at 6 months: 7.80%
[1]; 62.5 mg group (n = 81)
  Peripheral Edema Present at Baseline: 13.60%
[1]; 62.5 mg, N = 99, mean
  Isoleucine Visit 7: 61.47
  Leucine Visit 7: 114.63
  TotalBCAA Visit 7: 397.39
  Valine Visit 7: 221.29
  Isoleucine Baseline: 69.03
  Leucine Baseline: 121.80
  TotalBCAA Baseline: 430.03
  Valine Baseline: 239.20
[1]; [7]
  Isoleucine Change from Baseline: −6.58
  TotalBCAA Change from Baseline: −30.07
  Valine Change from Baseline: −16.74
[1]; 125 mg (n = 84)
  Peripheral Edema Present at 6 months: 13.50%
[1]; 125 mg group (n = 84)
  Peripheral Edema Present at Baseline: 13.10%
[1]; 125 mg, mean
  Isoleucine Visit 7: 60.06
  Leucine Visit 7: 115.95
  TotalBCAA Visit 7: 399.74
  Valine Visit 7: 223.73
  Isoleucine Baseline: 62.55
  Leucine Baseline: 115.62
  TotalBCAA Baseline: 408.60
  Valine Baseline: 230.43
[1]; [8]
  Isoleucine Change from Baseline: −2.92
  Leucine Change from Baseline: −0.60
  TotalBCAA Change from Baseline: −9.61
[1]; 250 mg (n = 85)
  Peripheral Edema Present at 6 months: 11.10%
[1]; 250 mg group (n = 85)
  Peripheral Edema Present at Baseline: 9.40%
[1]; 250 mg, N = 101, mean
  Valine Visit 7: 212.52
  Isoleucine Baseline: 66.92
  Leucine Baseline: 121.54
  Valine Baseline: 232.15
[1]; [9]
  Isoleucine Change from Baseline: −10.10
  Valine Change from Baseline: −17.15
[1]; 1-year Phase 2b dose-ranging trial
  edema: without precipitation of edema
[1]; [10]
  glycemic control: improved glycemic control
  insulin resistance: reduced insulin resistance
[1]; Type II diabetes subjects, 62.5 mg group
  Mean HbA1c at Baseline: 7.09%
[1]; Type II diabetes subjects, 62.5 mg, p 0.022
  HbA1c Placebo-corrected change from Baseline at 6 months: ▾0.37
[1]; Type II diabetes subjects, 125 mg group
  Mean HbA1c at Baseline: 6.90%
[1]; Type II diabetes subjects, 125 mg, p 0.001
  HbA1c Placebo-corrected change from Baseline at 6 months: ▾0.55
[1]; Type II diabetes subjects, 250 mg group
  Mean HbA1c at Baseline: 6.97%
[1]; Type II diabetes subjects, 250 mg, p 0.006
  HbA1c Placebo-corrected change from Baseline at 6 months: ▾0.45
[1]; Type II diabetes subjects, all doses
  HbA1c: statistically significant improvement
[1]; [11]
  HOMA-IR: Statistically significant reductions
  HbA1c: Statistically significant reductions
[1]; [12]
  HOMA-IR: statistically significant improvements
  HbA1c: statistically significant improvements
  fasting glucose: statistically significant improvements
  insulin levels: statistically significant improvements
[1]; all treatment cohorts
  Adiponectin: increased significantly in all treatment cohorts in a dose dependent manner
[1]; interim analysis
  additional biomarkers of fibrosis such as hematocrit: trends for improvement
[1]; interim analysis, six months
  alkaline phosphatase: Improvements
  bilirubin: Improvements
  gamma GT: Improvements
[1]; overall, interim analysis
  lipids: neutral effect
[1]; six months compared to baseline, interim analysis
  liver enzymes, including ALT and AST: statistically significant reductions
[1]; two lowest doses
  C-Reactive Protein levels: decrease
[2]; sacrificed day 14, vs vehicle
  expression of ABCA3 protein (abca3) in the lungs: increased
  expression of surfactant protein-B (sftbp) in the lungs: increased
[2]; [13]
  MCP-1 (CCL2) production in the lungs: decreased
  inflammatory monocyte numbers in the lungs: reduced
[2]; sacrificed day 14, vs vehicle (FIG. 13C)
  disrupted area in lung (histology): significantly reduced
[2]; sacrificed day 14, vs vehicle (FIG. 13E)
  total protein levels in bronchoalveolar lavage (lung barrier leakage): decreased
[3]
  serum miRNAs altered by HTF-C diet: largely corrected
[4]; LS-MPC2−/− mice
  glucose tolerance (GTT): no improvement in glucose tolerance
[4]; LS-MPC2−/− mice, acute treatment
  plasma ALT and liver injury gene expression in LS-MPC2−/− mice: refractory to the beneficial effects
[4]; WT mice
  glucose tolerance (GTT): improved glucose tolerance
[4]; WT mice, single dose (FIG. 8A)
  plasma ALT concentrations: decreased plasma ALT concentrations
[4]; WT mice, single dose (FIG. 8B)
  gene expression for hepatic stellate cell activation and fibrotic scar formation: decreased gene expression
[4]; both WT and LS-MPC2−/− mice, single dose 30 mg/kg
  plasma insulin values: decreased
[5]
  Fatty acid oxidation (burning fat): Increased
  HIF1α (transcription factor responding to oxygen): Decreased
  Inflammation (ballooning due to injury): Decreased
  Insulin sensitivity (cellular response to insulin): Increased
  PPARγ, PPARα (transcription factors regulating fat metabolism and inflammation): Increased
  SREBP (transcription factor regulating fat synthesis): Decreased
  de novo lipid synthesis (making new fat): Decreased
  mTORC1 (important nutrient sensor): Decreased
Carbonyl reductase
  metabolism: metabolized to its hydroxy metabolite (MSDC-0597) by a carbonyl reductase
[6]; [7]
  Leucine Change from Baseline: −6.74
[6]; [8]
  Valine Change from Baseline: −6.08
[6]; 250 mg, N = 101, mean, 12-month endpoint
  Isoleucine Visit 7: 56.15
[6]; [9]
  Leucine Change from Baseline: −10.55
  TotalBCAA Change from Baseline: −37.80
[6]; baseline to 12-month endpoint (Visit 7)
  Branched Chain Amino Acids (BCAA): reduced
